Our source for the zone of inhibition and zone quality qualifier values is patent publication US5244795A, “Processes for preparing cholesterol lowering compounds” (Merck & Co., Inc., priority 1992, dated 1993).

Experiment in all cases: FISP disc diffusion assay
What all share (format): cell-based
In general terms: A growth-free zone around the sample is the usual read-out of agar diffusion tests.

In one experiment the test system is Torulopsis glabrata. The following applies: Nakaseomyces glabratus; 250 μg/ml in CH2Cl2; read-out: diameter of the zone of inhibition of growth. The text has this: (§1) The FISP assay employs disc diffusion susceptibility testing methods to generate a spectrum of activity against a panel of representative yeasts, filamentous fungi and bacteria.
(§2) The yeasts employed in the assay are Saccharomyces cerevisiae, Candida albicans, Candida tropicalis, Candida rugosa, Brettanomyces bruxellensis, Torulospora hansenii, Candida guilliermondi, Candida pseudotropicalis, Torulopsis glabrata, Cryptococcus albidus, Cryptococcus laurentii and Kluyveromyces fragilis.
(§3) For carrying out the assay, seeded assay plates are prepared in the following manner according to the type of assay strain.
(§4) Inocula for yeasts and bacterial strains are prepared from overnight broth cultures then diluted into potato dextrose agar to a final concentration of either 40 percent or 70 percent transmission at 660 nm.
(§5) Assay plates for the yeasts and filamentous fungi are prepared by diluting the inoculum into appropriate molten agar medium, cooled to 45° C. to obtain a final concentration of 4 percent.
(§6) The seeded agar media thus prepared are dispensed into petri dishes for assays (11 ml per dish). […]
(§7) Following incubation, the inhibition zones are measured and recorded. […]
(§8) FISP data is reported as the diameter (in mm.) of the zone of inhibition of growth in agar diffusion assays. The zone is determined by measuring growth that differs from the background lawn. […]

The subject of the next experiment is Candida guilliermondii. The following applies: Meyerozyma guilliermondii; 250 μg/ml in CH2Cl2; read-out: diameter of the zone of inhibition of growth.
From the text: as §1, §2, §3, §4, §5, §6, §7, §8

Another experiment deals with Candida pseudotropicalis. The arrangement: key: F: clear zone, fuzzy edges; S: slightly hazy zone (some growth observed throughout zone); H: hazy zone (considerable growth observed throughout zone); V: very hazy zone (zone of inhibition is barely discernable); R: zone displays a ring of resistant growth; no qualifier: clear zone throughout, sharp edges. The following applies: 250 μg/ml in CH2Cl2.
From the text: as §1, §2, §3, §4, §5
(§9) The seeded agar media thus prepared are dispensed into petri dishes for assays (11 ml per dish).
(§10) The samples to be tested for production of antifungal agent are applied to 6.2 mm filter paper discs (25 μl/disc) and air dried at 24° C. When the sample to be tested is crude broth, it may be centrifuged prior to application. The discs bearing the material to be tested are then applied employing sterile conditions to the seeded assay plates. The assay plates are then incubated at either 28° C. or 37° C. for 24 hours. In one of the assays for Bacillus subtilis, the sample is applied to a disc previously impregnated with 4M potassium chloride at 25 μl/disc and then air dried.
(§11) Following incubation, the inhibition zones are measured and recorded. The measurements are made from the extreme edge where growth differs from the background zone. The zones are noted as to appearance as fuzzy edge and clear center, hazy throughout, slightly hazy, very hazy or ringed.
(§12) FISP data is reported as the diameter (in mm.) of the zone of inhibition of growth in agar diffusion assays. The zone is determined by measuring growth that differs from the background lawn. A qualifier is also added to describe the zone quality as listed below: no qualifier: clear zone throughout, sharp edges

The next experiment relates to Streptomyces sp. Also on record: key: F: clear zone, fuzzy edges; S: slightly hazy zone (some growth observed throughout zone); H: hazy zone (considerable growth observed throughout zone); V: very hazy zone (zone of inhibition is barely discernable); R: zone displays a ring of resistant growth; no qualifier: clear zone throughout, sharp edges. The following applies: 250 μg/ml in CH2Cl2. How it is done: as §1
The bacteria employed in the assay are Streptomyces sp., Acholeplasma laidlawii and Bacillus subtilis.
as §3, §4, §9
The samples to be tested for production of antifungal agent are applied to 6.2 mm filter paper discs (25 μl/disc) and air dried at 24° C. When the sample to be tested is crude broth, it may be centrifuged prior to application. The discs bearing the material to be tested are then applied employing sterile conditions to the seeded assay plates. The assay plates are then incubated at either 28° C. or 37° C. for 24 hours. […]
as §7, §8

The test system of a further experiment is Phoma sp. Also on record: key: F: clear zone, fuzzy edges; S: slightly hazy zone (some growth observed throughout zone); H: hazy zone (considerable growth observed throughout zone); V: very hazy zone (zone of inhibition is barely discernable); R: zone displays a ring of resistant growth; no qualifier: clear zone throughout, sharp edges. The following applies: 250 μg/ml in CH2Cl2.
From the text: as §1
(§13) The filamentous fungi used in the assay were Penicillium sp. Aspergillus niger, Trichoderma sp., Phoma sp., Trichoderma lignorum, Fusarium oxysporum, Ustilago maydis, Ceratocystis ulmi, Alternaria soloni, Verticillium serrae, Botrytis allii, Scopulariopsis communis, Cephalosporium sp., Cercospora beticola, Rhizomucor miehei, Aspergillus flavus and Aspergillus fumigatus.
as §3
(§14) Inocula for filamentous fungi are prepared by scraping the surface of stock plates maintained on potato dextrose agar with a moistened sterile dacron swab. The spores and mycelia are then suspended in 10 milliliters of sterile potato dextrose broth and adjusted to 65 percent transmission at 660 nm.
as §5, §9, §10, §11, §12

Another experiment concerns Aspergillus fumigatus. Also on record: key: F: clear zone, fuzzy edges; S: slightly hazy zone (some growth observed throughout zone); H: hazy zone (considerable growth observed throughout zone); V: very hazy zone (zone of inhibition is barely discernable); R: zone displays a ring of resistant growth; no qualifier: clear zone throughout, sharp edges. Conditions: 250 μg/ml in CH2Cl2.
From the text: as §1, §13, §3, §14, §5, §9, §10, §11, §12

The next experiment has as its system Rhizomucor miehei. The arrangement: key: F: clear zone, fuzzy edges; S: slightly hazy zone (some growth observed throughout zone); H: hazy zone (considerable growth observed throughout zone); V: very hazy zone (zone of inhibition is barely discernable); R: zone displays a ring of resistant growth; no qualifier: clear zone throughout, sharp edges. Conditions: 250 μg/ml in CH2Cl2.
From the text: as §1, §13, §3, §14, §5, §9, §10, §11, §12

For the next experiment, the system named is Fusarium oxysporum. The arrangement: key: F: clear zone, fuzzy edges; S: slightly hazy zone (some growth observed throughout zone); H: hazy zone (considerable growth observed throughout zone); V: very hazy zone (zone of inhibition is barely discernable); R: zone displays a ring of resistant growth; no qualifier: clear zone throughout, sharp edges. The following applies: 250 μg/ml in CH2Cl2.
From the text: as §1, §13, §3, §14, §5, §9, §10, §11, §12

A further experiment has as its system Verticillium serrae. The arrangement: key: F: clear zone, fuzzy edges; S: slightly hazy zone (some growth observed throughout zone); H: hazy zone (considerable growth observed throughout zone); V: very hazy zone (zone of inhibition is barely discernable); R: zone displays a ring of resistant growth; no qualifier: clear zone throughout, sharp edges. The following applies: 250 μg/ml in CH2Cl2.
From the text: as §1, §13, §3, §14, §5, §9, §10, §11, §12

The subject of another experiment is Cercospora beticola. Also on record: key: F: clear zone, fuzzy edges; S: slightly hazy zone (some growth observed throughout zone); H: hazy zone (considerable growth observed throughout zone); V: very hazy zone (zone of inhibition is barely discernable); R: zone displays a ring of resistant growth; no qualifier: clear zone throughout, sharp edges. Conditions: 250 μg/ml in CH2Cl2.
From the text: as §1, §13, §3, §14, §5, §9, §10, §11, §12

The test system of another experiment is Penicillium sp. The arrangement: key: F: clear zone, fuzzy edges; S: slightly hazy zone (some growth observed throughout zone); H: hazy zone (considerable growth observed throughout zone); V: very hazy zone (zone of inhibition is barely discernable); R: zone displays a ring of resistant growth; no qualifier: clear zone throughout, sharp edges. The following applies: 250 μg/ml in CH2Cl2.
From the text: as §1, §13, §3, §14, §5, §9, §10, §11, §12

A further experiment relates to Alternaria solani. The arrangement: key: F: clear zone, fuzzy edges; S: slightly hazy zone (some growth observed throughout zone); H: hazy zone (considerable growth observed throughout zone); V: very hazy zone (zone of inhibition is barely discernable); R: zone displays a ring of resistant growth; no qualifier: clear zone throughout, sharp edges. Conditions: 250 μg/ml in CH2Cl2.
From the text: as §1, §13, §3, §14, §5, §9, §10, §11, §12

A further experiment has as its system Trichoderma lignorum. The arrangement: key: F: clear zone, fuzzy edges; S: slightly hazy zone (some growth observed throughout zone); H: hazy zone (considerable growth observed throughout zone); V: very hazy zone (zone of inhibition is barely discernable); R: zone displays a ring of resistant growth; no qualifier: clear zone throughout, sharp edges. Conditions: 250 μg/ml in CH2Cl2.
From the text: as §1, §13, §3, §14, §5, §9, §10, §11, §12

Usually zone of inhibition stands for the size of the clear area around the sample on an inoculated plate. For `CC(/C=C/C=C(\C)C(O)C(C)C(=O)O[C@H]1C[C@H](C)C=C2C=C[C@@]3(C)O[C@@H](O)CC(=O)[C@]3(C)[C@H]21)=C\C=C\C(=O)O` (stereo partly shown) [Compound A], the zone of inhibition at 250 µg/mL in the experiment with Torulopsis glabrata and with Candida guilliermondii was 0 mm throughout. For the same compound, the zone quality qualifier entry in the experiment with Candida pseudotropicalis is on record as “V”; in the experiment on Streptomyces sp. it was “V”; in the experiment with Phoma sp. it was “S”; in the experiment with Aspergillus fumigatus, “S”; with Rhizomucor miehei it was “H”; in the experiment with Fusarium oxysporum, “S”. Further, the zone quality qualifier result in the experiment with Verticillium serrae is reported as “S”; with Cercospora beticola it was “S”; in the experiment with Penicillium sp., “H”; with Alternaria solani it was “F”; in the experiment on Trichoderma lignorum, “F”.
